From patent publication US10167262B2, “Herbicidal substituted 3-arylpyrazoles” (FMC CORPORATION, priority 2014, dated 2019)
Where two headings read alike, the source gives them in different places.

How the values were obtained:
Type in all cases: in vivo
[1] = test system: morningglory (Ipomoea coccinea); test: Test C pre-/postemergence greenhouse test, plant response rating 0-100; conditions: Ipomoea; for pest or weed control at 62 g/ha: 62 g ai/ha; for pest or weed control at 125 g/ha: 125 g ai/ha; for pest or weed control at 250 g/ha: 250 g ai/ha
Method in brief: (§1)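 Scores run from 0, no effect, to 100, complete control, assigned by eye after treated plants and controls spent 13 to 15 days in a greenhouse. Soil-applied treatment went onto freshly sown seed in loam and sand; foliar treatment hit seedlings at the 1- to 4-leaf stage.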

[2] = test system: lambsquarters (Chenopodium album); test: as above; conditions: Chenopodium album; for pest or weed control at 62 g/ha: 62 g ai/ha; for pest or weed control at 125 g/ha: 125 g ai/ha; for pest or weed control at 250 g/ha: 250 g ai/ha
Method in brief: as §1

[3] = test system: velvetleaf (Abutilon theophrasti); test: as above; conditions: Abutilon theophrasti; for pest or weed control at 62 g/ha: 62 g ai/ha; for pest or weed control at 125 g/ha: 125 g ai/ha; for pest or weed control at 250 g/ha: 250 g ai/ha
Method in brief: as §1

[4] = test system: johnsongrass (Sorghum halepense); test: as above; conditions: Sorghum halepense; for pest or weed control at 62 g/ha: 62 g ai/ha; for pest or weed control at 125 g/ha: 125 g ai/ha; for pest or weed control at 250 g/ha: 250 g ai/ha
Method in brief: as §1

[5] = test system: corn (Zea mays); test: Test A pre-/postemergence greenhouse herbicide test, visual injury rating 0-100; conditions: Zea mays, 240 h, 1000 g ai/ha, read-out: Plant response rating (0 to 100 scale), Corn
Method in brief: (§2)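 Visual injury scored on a 0–100 scale versus untreated controls roughly 10 days after treatment in greenhouse. Treatments were preemergence soil sprays plus postemergence sprays to plants 2–10 cm tall at one- to two-leaf stage, in a surfactant-containing solvent formulation.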

[6] = test system: wheat (Triticum aestivum); test: as above; conditions: Triticum aestivum, 240 h, 1000 g ai/ha, read-out: Plant response rating (0 to 100 scale), Wheat
Method in brief: as §2

[7] = test system: morningglory (Ipomoea spp.); test: as above; conditions: Ipomoea, 240 h, 1000 g ai/ha, read-out: Plant response rating (0 to 100 scale), Morningglory
Method in brief: as §2

[8] = test system: large (Lg) crabgrass (Digitaria sanguinalis); test: as above; conditions: Digitaria sanguinalis, 240 h, 1000 g ai/ha, read-out: Plant response rating (0 to 100 scale), Crabgrass, Large
Method in brief: as §2

[9] = test system: giant foxtail (Setaria faberii); test: as above; conditions: Setaria faberi, 240 h, 1000 g ai/ha, read-out: Plant response rating (0 to 100 scale), Foxtail, Giant
Method in brief: as §2

[10] = test system: velvetleaf (Abutilon theophrasti); test: as above; conditions: Abutilon theophrasti, 240 h, 1000 g ai/ha, read-out: Plant response rating (0 to 100 scale), Velvetleaf
Method in brief: as §2

[11] = test system: pigweed (Amaranthus retroflexus); test: as above; conditions: Amaranthus retroflexus, 240 h, 1000 g ai/ha, read-out: Plant response rating (0 to 100 scale), Pigweed
Method in brief: as §2

[12] = test system: barnyardgrass (Echinochloa crus-galli); test: as above; conditions: Echinochloa crus-galli, 240 h, 1000 g ai/ha, read-out: Plant response rating (0 to 100 scale), Barnyardgrass
Method in brief: as §2

[13] = post-emergence, Postemergence, read-out: Plant response rating (0 to 100), Morningglory
[14] = post-emergence, Postemergence, scale 0 to 100
[15] = pre-emergence, Preemergence, read-out: Plant response rating, Morningglory
[16] = pre-emergence, Preemergence, 500 g ai/ha
[17] = post-emergence, Postemergence, read-out: Plant response rating (0 to 100), Lambsquarters
[18] = pre-emergence, Preemergence, read-out: Plant response rating, Lambsquarters
[19] = post-emergence, Postemergence, read-out: Plant response rating (0 to 100), Velvetleaf
[20] = pre-emergence, Preemergence, read-out: Plant response rating, Velvetleaf
[21] = post-emergence, Postemergence, read-out: Plant response rating (0 to 100), Johnsongrass
[22] = pre-emergence, Preemergence, read-out: Plant response rating, Johnsongrass
[23] = post-emergence, Postemergence, 16 g ai/ha

Q: What does the source list for `Clc1cc(Cl)cc(-c2n[nH]cc2C(=NN2CCCC2)c2ccccc2)c1` [Compound 30, N-[[3-(3,5-dichlorophenyl)-1H-pyrazol-4-yl]phenylmethylene]-1-pyrrolidinamine]?
A: pest or weed control at 62 g/ha [1, 13]: 0%; pest or weed control at 125 g/ha [1, 13]: 0%; pest or weed control at 250 g/ha [1, 14]: 0%; pest or weed control at 62 g/ha [1, 15]: 10%; pest or weed control at 125 g/ha [1, 15]: 15%; pest or weed control at 250 g/ha ([1]; pre-emergence, Preemergence): 15%; pest or weed control at 500 g/ha [1, 16]: 15%; pest or weed control at 62 g/ha [2, 17]: 60%; pest or weed control at 125 g/ha [2, 17]: 80%; pest or weed control at 250 g/ha [2, 14]: 100%; pest or weed control at 62 g/ha [2, 18]: 100%; pest or weed control at 125 g/ha [2, 18]: 100%; pest or weed control at 250 g/ha ([2]; pre-emergence, Preemergence): 100%; pest or weed control at 500 g/ha [2, 16]: 100%; pest or weed control at 62 g/ha [3, 19]: 85%; pest or weed control at 125 g/ha [3, 19]: 85%; pest or weed control at 250 g/ha [3, 14]: 98%; pest or weed control at 62 g/ha [3, 20]: 65%; pest or weed control at 125 g/ha [3, 20]: 70%; pest or weed control at 250 g/ha ([3]; pre-emergence, Preemergence): 75%; pest or weed control at 500 g/ha [3, 16]: 100%; pest or weed control at 62 g/ha [4, 21]: 0%; pest or weed control at 125 g/ha [4, 21]: 0%; pest or weed control at 250 g/ha [4, 14]: 0%; pest or weed control at 62 g/ha [4, 22]: 0%; pest or weed control at 125 g/ha [4, 22]: 0%; pest or weed control at 250 g/ha ([4]; pre-emergence, Preemergence): 0%; pest or weed control at 500 g/ha [4, 16]: 0%; plant injury at 1000 g/ha ([5]; post-emergence, Postemergence): 0%; plant injury at 1000 g/ha ([5]; pre-emergence, Preemergence): 0%; plant injury at 1000 g/ha ([6]; post-emergence, Postemergence): 0%; plant injury at 1000 g/ha ([6]; pre-emergence, Preemergence): 0%; pest or weed control at 1000 g/ha ([7]; post-emergence, Postemergence): 0%; pest or weed control at 1000 g/ha ([7]; pre-emergence, Preemergence): 0%; pest or weed control at 1000 g/ha ([8]; post-emergence, Postemergence): 0%; pest or weed control at 1000 g/ha ([8]; pre-emergence, Preemergence): 0%; pest or weed control at 1000 g/ha ([9]; post-emergence, Postemergence): 0%; pest or weed control at 1000 g/ha ([9]; pre-emergence, Preemergence): 0%; pest or weed control at 1000 g/ha ([10]; post-emergence, Postemergence): 100%; pest or weed control at 1000 g/ha ([10]; pre-emergence, Preemergence): 0%; pest or weed control at 1000 g/ha ([11]; post-emergence, Postemergence): 100%; pest or weed control at 1000 g/ha ([11]; pre-emergence, Preemergence): 90%; pest or weed control at 1000 g/ha ([12]; post-emergence, Postemergence): 0%; pest or weed control at 1000 g/ha ([12]; pre-emergence, Preemergence): 0%

Q: For `CCn1cc(C(=O)c2ccccc2)c(-c2cc(Cl)cc(Cl)c2)n1` [Compound 31, [3-(3,5-dichlorophenyl)-1-ethyl-1H-pyrazol-4-yl]phenylmethanone], which pest or weed control at 16 g/ha [1, 23] is on record?
A: 0%

Q: What about the pest or weed control at 62 g/ha [1, 13] of the same compound?
A: 5%

Q: And the pest or weed control at 125 g/ha [1, 13]?
A: 5%

Q: And the pest or weed control at 16 g/ha [2, 23]?
A: 25%

Q: What about the pest or weed control at 62 g/ha [2, 17] of the same compound?
A: 55%

Q: What about the pest or weed control at 125 g/ha [2, 17] of the same compound?
A: 80%

Q: What about the pest or weed control at 16 g/ha [3, 23] of the same compound?
A: 50%

Q: And the pest or weed control at 62 g/ha [3, 19]?
A: 75%

Q: And the pest or weed control at 125 g/ha [3, 19]?
A: 80%

Q: What about the pest or weed control at 16 g/ha [4, 23] of the same compound?
A: 0%

Q: And the pest or weed control at 62 g/ha [4, 21]?
A: 5%

Q: What about the pest or weed control at 125 g/ha [4, 21] of the same compound?
A: 10%

Q: What about the plant injury at 1000 g/ha ([5]; post-emergence, Postemergence) of the same compound?
A: 10%

Q: And the plant injury at 1000 g/ha ([5]; pre-emergence, Preemergence)?
A: 0%

Q: What about the plant injury at 1000 g/ha ([6]; post-emergence, Postemergence) of the same compound?
A: 0%

Q: What about the plant injury at 1000 g/ha ([6]; pre-emergence, Preemergence) of the same compound?
A: 0%

Q: What about the pest or weed control at 1000 g/ha ([7]; post-emergence, Postemergence) of the same compound?
A: 0%

Q: And the pest or weed control at 1000 g/ha ([7]; pre-emergence, Preemergence)?
A: 0%

Q: What about the pest or weed control at 1000 g/ha ([8]; post-emergence, Postemergence) of the same compound?
A: 0%

Q: And the pest or weed control at 1000 g/ha ([8]; pre-emergence, Preemergence)?
A: 0%

Q: And the pest or weed control at 1000 g/ha ([9]; post-emergence, Postemergence)?
A: 0%

Q: What about the pest or weed control at 1000 g/ha ([9]; pre-emergence, Preemergence) of the same compound?
A: 0%

Q: And the pest or weed control at 1000 g/ha ([10]; post-emergence, Postemergence)?
A: 90%

Q: What about the pest or weed control at 1000 g/ha ([10]; pre-emergence, Preemergence) of the same compound?
A: 70%

Q: And the pest or weed control at 1000 g/ha ([11]; post-emergence, Postemergence)?
A: 100%

Q: And the pest or weed control at 1000 g/ha ([11]; pre-emergence, Preemergence)?
A: 100%

Q: What about the pest or weed control at 1000 g/ha ([12]; post-emergence, Postemergence) of the same compound?
A: 20%

Q: And the pest or weed control at 1000 g/ha ([12]; pre-emergence, Preemergence)?
A: 0%
